{
  "source": "patent US20150202157A1",
  "about": "“COMPOSITIONS AND METHODS FOR ENHANCING NEURONAL PHOSPHORYLATION HOMEOSTASIS, AND MODULATING DYSFUNCTIONAL EXOCYTOSIS AND NEUROTRANSMITTER RELEASE” (Revalesio Corporation, priority 2014, published 2015)",
  "test_system": "squid giant synapse",
  "experiment": "Electron microscopy of presynaptic terminal (synaptic vesicles at active zones)",
  "type": "cell-based, squid (Loligo paelli)",
  "details": "treated squid following h-tau42 injection",
  "description": "Immediately following the electrophysiological study the ganglia were removed from the recording chamber, fixed by immersion in glutaraldehyde, postfixed in osmium tetroxide, stained in block with uranium acetate, dehydrated and embedded in resin (Embed 812, EM Sciences). Ultrathin sections were collected on Pioloform (Ted Pella, Redding, Calif.) and carbon-coated single sloth grids, and contrasted with uranyl acetate and lead citrate. Morphometry and quantitative analysis of the synaptic vesicles were performed with the in house program developed with LabVIEW (National Instruments, Ostin Tex.). […] Vesicle density at the synaptic active zones was determined as the number of vesicles per μm^2, on an average area of 0.8 μm^2 per active zone. CCV density was determined within the limits of the presynaptic terminal on an average terminal area of 3.3 μm^2.\nAt the end of the electrophysiological recordings the stellate ganglion was immediately removed from the recording chamber and fixed by immersion in glutaraldehyde. […] Morphometry and quantitative analysis of the synaptic vesicles were performed with the image J software (NIH, EUA). […] Synaptic vesicle density and the number of CCV at the synaptic active zones were determined as the number of vesicles per μm2. […]",
  "data": [
    {"smiles": "O=C(O)/C=C\\C(=O)O.OC1CN(CCCOCCc2ccc3sccc3c2)C1", "note": "[T817MA]", "values": [
      {"measurement": "reduction in number of docked vesicles following h-tau42 injection", "result": "not seen"}
    ]}
  ]
}
